According to patent US20240270762A1, “PENICILLIN-BINDING PROTEIN INHIBITORS” (priority 2021, published 2024):
≈ marks a conversion by molar mass, not a printed value. Where two headings read alike, the source gives them in different places.

Tests used:
A. baumannii PBP1a = target: T1, A. baumannii PBP1a (Acinetobacter baumannii, UniProt A0ABX6CK30); assay: Bocillin-FL competition binding via gel filtration, A. baumannii PBP1a; settings: competition binding assay using Bocillin-FL via gel filtration; read-out: A. baumannii PBP1a Potency
T1 sequence (A0ABX6CK30 1-851): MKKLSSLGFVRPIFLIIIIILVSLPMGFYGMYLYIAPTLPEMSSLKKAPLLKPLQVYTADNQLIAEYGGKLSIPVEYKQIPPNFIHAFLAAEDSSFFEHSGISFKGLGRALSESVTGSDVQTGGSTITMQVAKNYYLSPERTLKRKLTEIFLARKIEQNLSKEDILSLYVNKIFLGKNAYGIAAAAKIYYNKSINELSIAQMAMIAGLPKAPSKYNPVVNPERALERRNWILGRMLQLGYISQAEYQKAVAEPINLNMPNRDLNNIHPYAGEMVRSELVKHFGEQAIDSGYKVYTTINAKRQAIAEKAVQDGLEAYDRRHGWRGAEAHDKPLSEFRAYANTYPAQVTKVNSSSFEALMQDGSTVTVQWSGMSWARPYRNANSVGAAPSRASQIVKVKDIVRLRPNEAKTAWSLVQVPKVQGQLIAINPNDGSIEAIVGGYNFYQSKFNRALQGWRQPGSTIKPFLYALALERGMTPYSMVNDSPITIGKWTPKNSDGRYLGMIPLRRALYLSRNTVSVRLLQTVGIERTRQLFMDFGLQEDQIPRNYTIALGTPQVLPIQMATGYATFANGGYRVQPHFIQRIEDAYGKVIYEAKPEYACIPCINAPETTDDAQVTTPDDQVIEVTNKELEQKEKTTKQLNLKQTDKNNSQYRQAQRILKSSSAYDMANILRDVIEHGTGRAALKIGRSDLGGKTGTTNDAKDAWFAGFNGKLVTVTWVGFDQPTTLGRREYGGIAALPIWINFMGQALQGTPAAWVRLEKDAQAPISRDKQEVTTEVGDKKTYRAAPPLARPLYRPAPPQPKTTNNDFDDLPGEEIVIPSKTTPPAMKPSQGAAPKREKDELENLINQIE
Summary of the method: (§1)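 Competitive equilibrium binding with Bocillin-FL reporter: PBP pre-incubated with inhibitor dilutions, Bocillin-FL added, 15 min incubation. Labelled enzyme isolated by size-exclusion spin plates, fluorescence measured; EC50 obtained by fitting bound fraction against inhibitor concentration with a Hill-coefficient model.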

B. pseudomallei Bp82 = assay: microbe, parasite or virus in culture; assay type: cell-based; settings: Burkholderia pseudomallei, BP82, read-out: Minimum inhibitory concentration, B. pseudomallei Bp82
N. gonorrhoeae MS11 = assay: Liquid broth MIC in Fastidious broth; settings: Neisseria gonorrhoeae
A. baumannii PBP2 = A. baumannii PBP2 (Acinetobacter baumannii, UniProt D0C8Z9); assay: Bocillin-FL competition binding via gel filtration, A. baumannii PBP2
Summary of the method: as §1

A. baumannii CDC-0083 = assay: microbe, parasite or virus in culture; assay type: cell-based; settings: Acinetobacter baumannii, CDC0083, read-out: MIC, A. baumannii CDC-0083
[1] = test system: B. humptydooensis ATCC BAA-2767; assay: microbe, parasite or virus in culture; assay type: cell-based; settings: Burkholderia humptydooensis, ATCCBAA2767, read-out: Minimum inhibitory concentration (MIC), B. humptydooensis ATCC BAA-2767
[2] = test system: B. thailandensis ATCC 700388; assay: microbe, parasite or virus in culture; assay type: cell-based; settings: Burkholderia thailandensis, ATCC700388, read-out: Minimum inhibitory concentration (MIC), B. thailandensis ATCC 700388
A. baumannii CDC-0045 = assay: microbe, parasite or virus in culture; assay type: cell-based; settings: Acinetobacter baumannii, CDC0045, read-out: MIC, A. baumannii CDC-0045
[3] = test system: P. aeruginosa (ΔmexAB-oprM); assay: Broth microdilution MIC in iron-depleted CAMHB (IDM); assay type: cell-based; settings: Pseudomonas aeruginosa; iron-depleted CAMHB (IDM); […]; read-out: Minimum inhibitory concentration, P. aeruginosa ΔmexAB-oprM
A. baumannii ATCC 19606 = assay: microbe, parasite or virus in culture; assay type: cell-based; settings: Acinetobacter baumannii, ATCC19606, read-out: MIC, A. baumannii ATCC 19606
P. aeruginosa CDC-0054 = assay: microbe, parasite or virus in culture; assay type: cell-based; settings: Pseudomonas aeruginosa, CDC0054, read-out: Minimum inhibitory concentration, P. aeruginosa CDC-0054
N. gonorrhoeae CDC-0197 = assay: Liquid broth MIC in Fastidious broth; settings: Neisseria gonorrhoeae
P. aeruginosa CDC-0110 = assay: microbe, parasite or virus in culture; assay type: cell-based; settings: Pseudomonas aeruginosa, CDC0110, read-out: Minimum inhibitory concentration, P. aeruginosa CDC-0110
P. aeruginosa ATCC 35151 = assay: microbe, parasite or virus in culture; assay type: cell-based; settings: Pseudomonas aeruginosa, ATCC35151, read-out: Minimum inhibitory concentration, P. aeruginosa ATCC 35151
P. aeruginosa ATCC 27853 = assay: microbe, parasite or virus in culture; assay type: cell-based; settings: Pseudomonas aeruginosa, ATCC27853, read-out: Minimum inhibitory concentration, P. aeruginosa ATCC 27853
[4] = MS11, read-out: Minimum Inhibitory Concentration (MIC), N. gonorrhoeae MS11
[5] = CDC0197, read-out: Minimum Inhibitory Concentration (MIC), N. gonorrhoeae CDC-0197

Sequence of A. baumannii PBP2 (D0C8Z9 whole entry): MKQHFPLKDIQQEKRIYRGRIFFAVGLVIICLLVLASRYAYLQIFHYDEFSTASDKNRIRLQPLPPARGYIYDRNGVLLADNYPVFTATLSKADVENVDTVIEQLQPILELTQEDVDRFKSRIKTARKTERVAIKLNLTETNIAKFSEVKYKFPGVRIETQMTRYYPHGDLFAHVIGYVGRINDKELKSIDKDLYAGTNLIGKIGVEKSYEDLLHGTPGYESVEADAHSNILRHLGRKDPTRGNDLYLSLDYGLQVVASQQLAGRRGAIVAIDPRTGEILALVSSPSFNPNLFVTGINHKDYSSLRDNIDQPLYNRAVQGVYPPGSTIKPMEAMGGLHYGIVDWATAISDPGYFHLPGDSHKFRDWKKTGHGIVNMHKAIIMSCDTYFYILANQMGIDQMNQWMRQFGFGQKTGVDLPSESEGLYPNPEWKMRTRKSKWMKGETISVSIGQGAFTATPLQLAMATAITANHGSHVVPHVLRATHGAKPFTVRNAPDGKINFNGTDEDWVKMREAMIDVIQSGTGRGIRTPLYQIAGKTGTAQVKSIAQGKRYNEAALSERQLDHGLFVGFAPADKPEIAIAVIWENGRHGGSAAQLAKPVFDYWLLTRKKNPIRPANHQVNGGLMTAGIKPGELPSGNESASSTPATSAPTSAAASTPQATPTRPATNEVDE

## O=C(NCCN1CCN(C(=O)N[C@@H](C(=O)N[C@H]2Cc3ccc(F)c(C(=O)O)c3OB2O)c2cc(F)c(O)c(O)c2Cl)C(=O)C1=O)Nc1cccnc1 [Example 222, (R)-3-((R)-2-(2-chloro-5-fluoro-3,4-dihydroxyphenyl)-2-(2,3-dioxo-4-(2-(3-(pyridin-3-yl)ureido)ethyl)piperazine-1-carboxamido)acetamido)-7-fluoro-2-hydroxy-3,4-dihydro-2H-benzo[e][1,2]oxaborinine-8-carboxylic acid]
A. baumannii PBP1a
  EC50: 10 to 50 µM
B. pseudomallei Bp82
  MIC: < 1 µg/mL
N. gonorrhoeae MS11; [4]
  MIC: 16 to 32 µg/mL (≈ 21.5 to 42.9 µM)
A. baumannii PBP2
  EC50: 10 to 50 µM
A. baumannii CDC-0083
  MIC: 32 to 64 µg/mL (≈ 42.9 to 85.8 µM)
[1]
  MIC: 2 to 4 µg/mL (≈ 2.68 to 5.36 µM)
[2]
  MIC: 2 to 4 µg/mL (≈ 2.68 to 5.36 µM)
A. baumannii CDC-0045
  MIC: < 1 µg/mL
[3]
  MIC: < 1 µg/mL
A. baumannii ATCC 19606
  MIC: < 1 µg/mL
P. aeruginosa CDC-0054
  MIC: 2 to 4 µg/mL (≈ 2.68 to 5.36 µM)
N. gonorrhoeae CDC-0197; [5]
  MIC: > 64 µg/mL
P. aeruginosa CDC-0110
  MIC: < 1 µg/mL
P. aeruginosa ATCC 35151
  MIC: < 1 µg/mL
P. aeruginosa ATCC 27853
  MIC: < 1 µg/mL

## O=C(NCCN1CCN(C(=O)NC(C(=O)N[C@H]2Cc3ccc(F)c(C(=O)O)c3OB2O)c2cc(F)c(O)c(O)c2Cl)C1=O)c1nccs1 (stereo partly drawn) [Example 247, (3R)-3-(2-(2-chloro-5-fluoro-3,4-dihydroxyphenyl)-2-(2-oxo-3-(2-(thiazole-2-carboxamido)ethyl)imidazolidine-1-carboxamido)acetamido)-7-fluoro-2-hydroxy-3,4-dihydro-2H-benzo[e][1,2]oxaborinine-8-carboxylic acid]
B. pseudomallei Bp82
  MIC: < 1 µg/mL
N. gonorrhoeae MS11; MS11, read-out: Minimum Inhibitory Concentration, MS11
  MIC: 16 to 32 µg/mL (≈ 22.6 to 45.1 µM)
A. baumannii PBP2
  EC50: 10 to 50 µM
A. baumannii CDC-0083
  MIC: < 1 µg/mL
[1]
  MIC: < 1 µg/mL
[2]
  MIC: < 1 µg/mL
A. baumannii CDC-0045
  MIC: < 1 µg/mL
[3]
  MIC: < 1 µg/mL
A. baumannii ATCC 19606
  MIC: < 1 µg/mL
P. aeruginosa CDC-0054
  MIC: 2 to 4 µg/mL (≈ 2.82 to 5.64 µM)
N. gonorrhoeae CDC-0197; CDC0197, read-out: Minimum Inhibitory Concentration, CDC-0197
  MIC: > 64 µg/mL
P. aeruginosa CDC-0110
  MIC: < 1 µg/mL
P. aeruginosa ATCC 35151
  MIC: < 1 µg/mL
P. aeruginosa ATCC 27853
  MIC: 2 to 4 µg/mL (≈ 2.82 to 5.64 µM)

## CN(CCN1CCN(C(=O)N[C@@H](C(=O)N[C@H]2Cc3ccc(F)c(C(=O)O)c3OB2O)c2cc(F)c(O)c(O)c2Cl)C(=O)C1=O)Cc1ccc(C(N)=O)cc1 [Example 226, (R)-3-((R)-2-(4-(2-((4-carbamoylbenzyl)(methyl)amino)ethyl)-2,3-dioxopiperazine-1-carboxamido)-2-(2-chloro-5-fluoro-3,4-dihydroxyphenyl)acetamido)-7-fluoro-2-hydroxy-3,4-dihydro-2H-benzo[e][1,2]oxaborinine-8-carboxylic acid]
A. baumannii PBP1a
  EC50: 10 to 50 µM
B. pseudomallei Bp82
  MIC: < 1 µg/mL
N. gonorrhoeae MS11; [4]
  MIC: 16 to 32 µg/mL (≈ 20.7 to 41.4 µM)
A. baumannii CDC-0083
  MIC: < 1 µg/mL
[1]
  MIC: < 1 µg/mL
[2]
  MIC: < 1 µg/mL
A. baumannii CDC-0045
  MIC: < 1 µg/mL
[3]
  MIC: < 1 µg/mL
A. baumannii ATCC 19606
  MIC: < 1 µg/mL
P. aeruginosa CDC-0054
  MIC: 8 to 16 µg/mL (≈ 10.4 to 20.7 µM)
N. gonorrhoeae CDC-0197; [5]
  MIC: > 64 µg/mL
P. aeruginosa CDC-0110
  MIC: < 1 µg/mL
P. aeruginosa ATCC 35151
  MIC: < 1 µg/mL
P. aeruginosa ATCC 27853
  MIC: 2 to 4 µg/mL (≈ 2.59 to 5.18 µM)
